Several values for one entry are separate records, joined by “and”; a condition that tells them apart may be missing. Equal values may be shown once. Entries after “also recorded” stand apart in the source; their conditions may differ.
What was measured:
gastric mucosa = settings: cited from earlier work
PGI2 synthesis = settings: cited from earlier work
thromboxane-B2 = experiment: Thromboxane (thromboxane-B2) blood levels after topical aspirin, Example 1; format: in vivo, human
Procedure: Five healthy adult volunteers (3 male, 2 female) were studied. Each refrained from ingesting oral aspirin for two weeks prior to study. Prior to treatment in accordance with the present invention, baseline thromboxane levels and hemoccults were obtained.
Thromboxane levels were measured by assaying for blood levels of thromboxane-B2 in accordance with the method described in Braden et al., Circulation 82:178 (1990). Thromboxane levels can also be measured in either blood or urine according to known methods which include those without limitation disclosed in the following references: Hirsh et al., supra; Robertson et al., N. Engl. J. Med. 304:998 (1981); Pedersen et al., N. Engl. J. Med. 311:1206 (1984); Patrignani et al., J. Clin. Invest. 69:1366 (1982); Preston et al., 304:76 (1981); Hirsh et al., N. Engl. J. Med. 304:685 (1981).
A preparation of aspirin in isopropyl alcohol and propylene glycol was prepared by mixing "Aspirsol"™ topical aspirin (NDC54102-001-01; commercially available from TERRI Pharmaceuticals, Inc., PO Box 6454, Kingwood, Tex. 77325) in accordance with the package instructions except that 8 ml instead of 10 ml of the suspending solution was used. The resulting solution contained approximately 9% aspirin rather than the 7-8% indicated on the package label.
After base levels of thromboxane had been measured, the aspirin solution was first applied on the morning of Day 1 to the skin of the human subjects within an hour of mixing by rubbing the aspirin solution on the arms and/or chest of the subject. The application was repeated with freshly prepared solution for each of four additional mornings (Days 2-5) in the same manner. Between applications the subjects followed their normal schedule of bathing and showering. Eight hours after the fifth application (on Day 5) blood was drawn for salicylate levels and thromboxane levels to be determined. With one subject, blood was drawn for TXA2 levels every day just before application of a new aspirin solution (i.e., approximately 24 hours after application of the previous aspirin solution). Hemoccults were also tested.
Two of the subjects continued daily application for another five days (total ten days). For Days 6 and 7, aspirin solutions freshly prepared as described above were used. Beginning with Day 8, a different aspirin preparation was used. This second preparation was prepared by crushing aspirin tablets containing approximately 975 mg aspirin to form a powder. The powder was then formed into a paste with approximately 2 ml of distilled water. This paste was then mixed with 4 ml propylene glycol and 4 ml ethanol to produce approximately 10 ml of a cloudy solution. This cloudy solution was then filtered to remove excipients and other insoluble material found in the crushed aspirin tablets. After filtering, approximately 10 ml of a clear solution was obtained which contained approximately 9% aspirin. 8 ml of the resulting solution was used in each application. This second solution was applied to the two continuing subjects as previously described. Salicylate and thromboxane levels were checked after the tenth day.

[1] = tested on: pregnancy-induced hypertension and preeclamptic toxemia; settings: daily doses, third trimester, women at high risk; cited from earlier work
[2] = tested on: PGI2 formation in response to intravenous bradykinin; experiment: Urinary PGI-M excretion at rest and after bradykinin infusion, Example 3; format: in vivo, human; settings: for PGI-M (stim) post ASA: bradykinin-stimulated
Procedure: (§1) In an additional 4 subjects, we examined the increase in PGI2 formation in response to intravenous bradykinin prior to and following oral aspirin 75 mg or dermal aspirin 750 mg daily for 14 days. The protocol for bradykinin has been described previously [Clark, N.Engl.J.Med 325:1137 (1991)]. Volunteers were admitted after an overnight fast to the Clinical Research Center. Blood samples were obtained for serum TXB2 and the subject asked to void. Through a peripheral vein, 1 liter of normal saline was infused over 1 hour. After a further hour, bradykinin was infused in incremental doses of 100-800 ng/kg/min, each over 15 mm. The infusion was continued at the maximum tolerated dose for a total period of 2 hr. Blood pressure and heart rate were monitored continuously. Urine was collected in separate 2 hr aliquots prior to, during and following the bradykinin infusion.
(§2) ^1 The excretion of TXM and PGIM before and following dermal aspirin
(§3) 750 mg/day or oral aspirin 75 mg/day for 10 days. Urine samples were
(§4) collected over 2 hr before (rest) and following the administration of […]

[3] = tested on: TX-M excretion (TXA2 biosynthesis); experiment: Urinary TX-M excretion before and after dermal or oral aspirin, Example 3; format: in vivo, human; parameters: TX-M post ASA: unit not given beside the values
Procedure: as §1, §2, §3, §4

[4] = patients with rheumatic diseases
[5] = Subject 1, baseline 401, about 24 h after previous application

Structure (SMILES): CC(=O)Oc1ccccc1C(=O)O [aspirin, acetyl salicylic acid]
- Gastric mucosa damage, occult bleeding (gastric mucosa; applied topically to gastrointestinal tissue): damages gastric mucosa and induces occult gastrointestinal bleeding
- Effects on gastric mucosa (gastric mucosa; intravenous/parenteral vs oral): less pronounced with parenteral than with oral administration
- Bleeding (gastric mucosa; oral diluted solutions vs similar doses in tablet form): considerably less bleeding than similar doses in tablet form
- Erythema of the gastric mucosa (gastric mucosa; [4]): approximately 80 % of patients
- Gastric erosions (gastric mucosa; [4]): approximately 40 % of patients
- Gastric ulcer (gastric mucosa; [4]): 15 % of patients
- Inhibition of PGI2 synthesis, arterial and venous tissue (PGI2 synthesis; 20 mg/day for 1 week, atherosclerotic patients): 50%
- Urinary PGI2 metabolites / prostacyclin biosynthesis (PGI2 synthesis; approximately 40 mg/day): no significant effect on prostacyclin biosynthesis
- Reduction of PGI2 synthesis, arterial and venous tissue (PGI2 synthesis; equally low doses (about 40 mg/day)): 50%
- Bradykinin-stimulated PGI2 formation (PGI2 synthesis; oral aspirin 75 mg/day): abolished
- Decrease in thromboxane levels after five daily applications (thromboxane-B2; Day 5, subject 3 not considered): at least 50%
- Thromboxane level, Day 3 (thromboxane-B2; [5]): 250 ng/cc
- Thromboxane level, Day 4 (thromboxane-B2; [5]): 199 ng/cc
- Thromboxane level, Day 5, prior to the Day 5 dose (thromboxane-B2; Subject 1, baseline 401, morning of Day 5): 105 ng/cc
- Thromboxane level, Day 2 (thromboxane-B2; Subject 1, baseline 401, topical aspirin ~9% solution daily, about 24 h after previous application): 311 ng/cc
- Thromboxane level, Day 10 (thromboxane-B2; two subjects continuing to ten daily applications, subject 1 baseline 401, subject 2 baseline 372): 18 ng/cc and 12 ng/cc
- Suppression of thromboxane levels by Day 10 (thromboxane-B2; two subjects, ten daily applications): 95% and 97%
- Incidence of pregnancy-induced hypertension and preeclamptic toxemia [1]: significantly reduce the incidence of pregnancy-induced hypertension and preeclamptic toxemia
- PGI-M (rest) post ASA ([2]; Dermal aspirin 750 mg/day, PT 1, pre ASA 163): 138
- PGI-M (rest) post ASA ([2]; Dermal aspirin 750 mg/day, PT 2, pre ASA 105): 149
- PGI-M (rest) post ASA ([2]; Oral aspirin 75 mg/day, PT 1, pre ASA 104): 63
- PGI-M (rest) post ASA ([2]; Oral aspirin 75 mg/day, PT 2, pre ASA 200): 96
- PGI-M (stim) post ASA ([2]; Dermal aspirin 750 mg/day, PT 1, pre ASA 1520): 1553
- PGI-M (stim) post ASA ([2]; Dermal aspirin 750 mg/day, PT 2, pre ASA 559): 601
- PGI-M (stim) post ASA ([2]; Oral aspirin 75 mg/day, PT 1, pre ASA 433): 173
- PGI-M (stim) post ASA ([2]; Oral aspirin 75 mg/day, PT 2, pre ASA 340): 132
- Resting and bradykinin-stimulated PGI-M excretion ([2]; dermal aspirin 750 mg/day): PGI2 formation in response to bradykinin infusion was also unaltered; also recorded: largely unaltered; also recorded: had not effect on
- Resting and bradykinin-stimulated PGI-M excretion ([2]; oral aspirin 75 mg/day): suppressed basal and bradykinin-stimulated PGI-M excretion; also recorded: decrease in urinary PGI-M at rest and following stimulation with bradykinin
- TX-M post ASA ([3]; Dermal aspirin 750 mg/day, PT 1, pre ASA 220): 46
- TX-M post ASA ([3]; Dermal aspirin 750 mg/day, PT 2, pre ASA 121): 29
- TX-M post ASA ([3]; Oral aspirin 75 mg/day, PT 1, pre ASA 136): 26
- TX-M post ASA ([3]; Oral aspirin 75 mg/day, PT 2, pre ASA 111): 43
- Urinary TX-M ([3]; dermal aspirin 750 mg/day): marked fall in urinary TX-M; also recorded: suppressed TXM
- Urinary TX-M ([3]; oral aspirin 75 mg/day): marked fall in urinary TX-M

From patent US6071896A, “Suppression of thromboxane levels by percutaneous administration of aspirin” (Gundersen Clinic, Ltd., priority 1998, dated 2000)
